From US9914730B2, “Azaquinazoline inhibitors of Atypical protein Kinase C” (Ignyta, Inc., priority 2012, dated 2018)

biological target: T1, full-length human PKCι (Homo sapiens, UniProt P41743); assay: PKCι IC50 IMAP assay, full-length PKCι at 150 μM ATP; assay type: biochemical; conditions: read-out: IC50 in IMAP assay against full length PKCi at 150 μM ATP
T1 construct: Recombinant, full-length human PKCι expressed in Sf21 insect cells is also commercially available; purchased; host or cells: Sf21 insect cells
T1 sequence (P41743 1-596): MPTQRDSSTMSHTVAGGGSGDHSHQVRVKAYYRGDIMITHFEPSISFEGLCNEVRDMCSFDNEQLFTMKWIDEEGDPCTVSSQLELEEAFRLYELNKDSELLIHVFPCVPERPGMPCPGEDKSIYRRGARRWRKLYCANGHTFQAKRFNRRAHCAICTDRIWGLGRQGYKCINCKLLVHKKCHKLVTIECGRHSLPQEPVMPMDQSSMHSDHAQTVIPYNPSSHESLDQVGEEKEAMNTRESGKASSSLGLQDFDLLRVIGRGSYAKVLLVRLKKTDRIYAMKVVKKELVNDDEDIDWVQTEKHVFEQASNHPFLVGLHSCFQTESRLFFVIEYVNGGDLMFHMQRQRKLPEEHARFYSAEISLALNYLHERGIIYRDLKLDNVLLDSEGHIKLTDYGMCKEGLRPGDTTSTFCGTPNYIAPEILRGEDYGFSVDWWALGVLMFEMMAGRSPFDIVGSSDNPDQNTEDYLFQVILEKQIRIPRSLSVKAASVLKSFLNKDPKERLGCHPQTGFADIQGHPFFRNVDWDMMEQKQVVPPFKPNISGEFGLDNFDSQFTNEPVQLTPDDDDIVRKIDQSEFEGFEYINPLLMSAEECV
Summary of the method: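 Recombinant full-length human PKCι (Sf21-expressed, typically 15 pM) phosphorylated 100 nM 5FAM-labelled PKCε pseudosubstrate-derived peptide with 150 μM ATP (5× KM^APP) in 18 mM tris-HCl pH7.5, 9 mM MgCl2, EGTA, DTT, 4% DMSO. After 60 min at room temperature, IMAP binding reagent was added for 2 h and fluorescence polarisation read.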

SMILES | IC50
FC(F)(F)CN1CCC(Nc2cc(-c3nc(N4CCNCC4)c4c(C5CC5)cncc4n3)ccn2)CC1 [Example 814, [4-(5-Cyclopropyl-4-piperazin-1-yl-pyrido[3,4-d]pyrimidin-2-yl)-pyridin-2-yl]-[1-(2,2,2-trifluoro-ethyl)-piperidin-4-yl]-amine] | < 100 nM
CC1(C)CN(c2nc(-c3ccnc(Nc4nc(F)c(F)cc4F)c3)nc3cncc(C4CC4)c23)CCN1 [Example 815, {4-[5-Cyclopropyl-4-(3,3-dimethyl-piperazin-1-yl)-pyrido[3,4-d]pyrimidin-2-yl]-pyridin-2-yl}-(3,5,6-trifluoro-pyridin-2-yl)-amine] | < 100 nM
CS(=O)(=O)N1CCC(Nc2cc(-c3nc(N4CCNCC4)c4c(C5CC5)cncc4n3)ccn2)CC1 [Example 816, [4-(5-Cyclopropyl-4-piperazin-1-yl-pyrido[3,4-d]pyrimidin-2-yl)-pyridin-2-yl]-(1-methanesulfonyl-piperidin-4-yl)-amine] | < 100 nM
Fc1ccccc1-n1cc(Nc2cc(-c3nc(N4CCNCC4)c4c(C5CC5)cncc4n3)ccn2)cn1 [Example 817, [4-(5-Cyclopropyl-4-piperazin-1-yl-pyrido[3,4-d]pyrimidin-2-yl)-pyridin-2-yl]-[1-(2-fluoro-phenyl)-1H-pyrazol-4-yl]-amine] | < 100 nM
Fc1cccc(F)c1-n1cc(Nc2cc(-c3nc(N4CCNCC4)c4c(C5CC5)cncc4n3)ccn2)cn1 [Example 818, [4-(5-Cyclopropyl-4-piperazin-1-yl-pyrido[3,4-d]pyrimidin-2-yl)-pyridin-2-yl]-[1-(2,6-difluoro-phenyl)-1H-pyrazol-4-yl]-amine] | < 100 nM

Continued, values first:

IC50 | SMILES
< 100 nM | Fc1cc(F)c(-n2cc(Nc3cc(-c4nc(N5CCNCC5)c5c(C6CC6)cncc5n4)ccn3)cn2)c(F)c1 [Example 820, [4-(5-Cyclopropyl-4-piperazin-1-yl-pyrido[3,4-d]pyrimidin-2-yl)-pyridin-2-yl]-[1-(2,4,6-trifluoro-phenyl)-1H-pyrazol-4-yl]-amine]
< 100 nM | CN1Cc2ccc(Nc3cc(-c4nc(N5CCC(O)CC5)c5c(C6CC6)cncc5n4)ccn3)cc2C1 [Example 821, 1-{5-Cyclopropyl-2-[2-(2-methyl-2,3-dihydro-1H-isoindol-5-ylamino)-pyridin-4-yl]-pyrido[3,4-d]pyrimidin-4-yl}-piperidin-4-ol]
1000 to 10000 nM | NC(=O)c1cc(F)c(Nc2cc(-c3nc(N4CCNCC4)c4c(C5CC5)cncc4n3)ccn2)c(F)c1 [Example 822, 4-[4-(5-Cyclopropyl-4-piperazin-1-yl-pyrido[3,4-d]pyrimidin-2-yl)-pyridin-2-ylamino]-3,5-difluoro-benzamide]
< 100 nM | c1cc(-c2nc(N3CCNCC3)c3c(C4CC4)cncc3n2)cc(N[C@H]2C[C@@H]3CC[C@H]2C3)n1 [Example 823, (1S,2S,4R)-Bicyclo[2.2.1]hept-2-yl-[4-(5-cyclopropyl-4-piperazin-1-yl-pyrido[3,4-d]pyrimidin-2-yl)-pyridin-2-yl]-amine]
< 100 nM | c1cc(-c2nc(N3CCNCC3)c3c(C4CC4)cncc3n2)cc(N[C@@H]2C[C@H]3CC[C@@H]2C3)n1 [Example 824, (1R,2R,4S)-Bicyclo[2.2.1]hept-2-yl-[4-(5-cyclopropyl-4-piperazin-1-yl-pyrido[3,4-d]pyrimidin-2-yl)-pyridin-2-yl]-amine]
< 100 nM | c1cc(C2CC2)n2nc(Nc3cc(-c4nc(N5CCNCC5)c5c(C6CC6)cncc5n4)ccn3)nc2c1 [Example 825, [4-(5-Cyclopropyl-4-piperazin-1-yl-pyrido[3,4-d]pyrimidin-2-yl)-pyridin-2-yl]-(5-cyclopropyl-[1,2,4]triazolo[1,5-a]pyridin-2-yl)-amine]
100 to 1000 nM | CN(C)CCOc1nc(-c2ccnc(Nc3c(F)cccc3F)c2)nc2cncc(C3CC3)c12 [Example 826, {4-[5-Cyclopropyl-4-(2-dimethylamino-ethoxy)-pyrido[3,4-d]pyrimidin-2-yl]-pyridin-2-yl}-(2,6-difluoro-phenyl)-amine]
